Measured values from US20190134005A1 (BioMarin Pharmaceutical Inc., priority 2016, published 2019).

Assays:
human CGT [1] = biological target: T1, human CGT (Homo sapiens, UniProt Q16880); assay: CGT Enzyme Assay (Biological Example 2, RapidFire/MS/MS method with 0.01% Tween 80 added); format: biochemical; conditions: enzymatic assay, CHO/CGT lysate
T1 sequence (Q16880 21-541): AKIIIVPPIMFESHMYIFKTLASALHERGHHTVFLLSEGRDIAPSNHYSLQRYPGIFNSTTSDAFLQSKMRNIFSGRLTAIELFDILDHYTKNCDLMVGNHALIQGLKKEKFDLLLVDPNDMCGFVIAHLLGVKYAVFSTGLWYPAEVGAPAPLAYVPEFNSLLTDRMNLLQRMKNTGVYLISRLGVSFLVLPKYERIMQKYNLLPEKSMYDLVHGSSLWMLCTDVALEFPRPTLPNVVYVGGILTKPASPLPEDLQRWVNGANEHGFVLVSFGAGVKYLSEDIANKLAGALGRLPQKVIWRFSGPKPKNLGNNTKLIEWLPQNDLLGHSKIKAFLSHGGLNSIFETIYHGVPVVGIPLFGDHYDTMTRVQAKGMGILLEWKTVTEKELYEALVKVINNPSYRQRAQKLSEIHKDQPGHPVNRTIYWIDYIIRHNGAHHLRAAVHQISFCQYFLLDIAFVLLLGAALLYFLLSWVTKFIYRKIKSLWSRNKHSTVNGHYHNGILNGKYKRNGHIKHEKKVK
Experimental: Full-length human CGT cDNA was cloned into the BamH1/Xho1 site of pcDNA3.1 (+) mammalian expression vector (V90-20, Invitrogen, Carlsbad, Calif.) and the plasmid was transfected into Chinese hamster ovary (CHO) cells. Lysate was prepared using M-PER (Mammalian Protein Extraction Reagent, ThermoFisher Scientific, Grand Island, N.Y.) in the presence of a protease inhibitor cocktail (P8340, Sigma, Saint Louis, Mo.). Each 100 mm dish (100% confluent, approximately 1×10^7 cells) was lysed with 250 μL of M-PER containing protease inhibitors. Protein concentration was determined using a Pierce BCA protein assay kit (ThermoFisher Scientific). […] The final concentration of DMSO was 0.5% in both compound-treated and mock-treated samples. Each individual reaction was diluted with 80 μL of methanol:acetronitrile (1:3) containing 5 μM N-docdecanoyl-NBD-galactosylceramide (internal standard) to stop the reaction. 200 μL H2O:acetonitile (1:1) was added to precipitate the protein. After sufficient mixing, the plates were centrifuged at 2469 g for 38 minutes, 200 μl of supernatant was transferred to a LC-MS 96-deep well plate and a second spin was performed at 2469 g for 10 minutes. The final supernatant was injected in triplicate for RapidFire/MS/MS analysis.
The quantitative analysis of C6-NBD-dihydro-ceramide and C6-NBD-dihydro-galactosylceramide was performed on a Rapid Fire 360 high-throughput mass spectrometry system (Agilent Technologies, Palo Alto, Calif.) coupled with a API4000^+ triple quadrupole mass spectrometer (Applied Biosystems, Concord, Ontario, Canada). RapidFire software packages, including RapidFire Control panel, RapidFire UI and RapidFire Integrator (Agilent Technologies), were used to control the RapidFire instrument and to process data. Analyst 1.6.2 software packages (Applied Biosystems) were used to control the MS system and acquire MS data. 10 μL of sample was loaded on a micro-scale C4 solid-phase extraction (SPE) cartridge (Agilent Technologies) and salts were removed using water supplemented with 0.1% formic acid at the flow rate of 1.5 mL/min for 3 sec. C6-NBD-dihydro-ceramide and C6-NBD-dihydro-galactosylceramide were co-eluted into the mass spectrometer using acetonitrile containing 0.1% formic acid at the flow rate of 1.0 mL/min for 3 sec. The total cycle time of one injection was 8 secs. The MS/MS detection was performed in ESI negative mode.
The C6-NBD-dihydro-galactosylceramide reading was normalized first by dividing the peak area of C6-NBD-dihydro-galactosylceramide by the peak area of the internal standard, N-docdecanoyl-NBD-galactosylceramide.

human CGT [2] = biological target: T1, human CGT; assay: Assay 1: CGT Enzymatic Assay (RapidFire/MS/MS, 0.01% Tween 80); format: biochemical; conditions: Table 1, Compounds of Formula (I) and Formula (II), CGT enzymatic assay, read-out: IC50

IC50 (human CGT [1]) [µM]	IC50 (human CGT [2]) [µM]	SMILES	further results
10 to 30		N#Cc1ccc(N2C(=O)N(c3ccc(C#N)cc3)C3(COC3)[C@H]2c2cccc(OC(F)(F)F)c2)cc1 [Example 36-1]	
< 1		CC[C@@]1(C)[C@@H](c2cccc(C#N)c2)N(c2ccc(Cl)cc2)C(=O)N1c1ccc(Cl)cc1 [Example 34-3, 3-((4R,5S)-1,3-bis(4-chlorophenyl)-5-ethyl-5-methyl-2-oxoimidazolidin-4-yl)benzonitrile]	
< 1		C[C@]1(C(F)(F)F)[C@@H](c2cccc(C#N)c2)N(c2ccc(Cl)cc2)C(=O)N1c1ccc(Cl)cc1 [Example 27-2, 3-((4R,5R)-1,3-bis(4-chlorophenyl)-5-methyl-2-oxo-5-(trifluoromethyl)imidazolidin-4-yl)benzonitrile]	
< 1		CC1(C)[C@H](c2cccc(OC(F)(F)F)c2)N(c2ccc(Cl)cc2)C(=O)N1c1ccc(C#N)cc1 [Example 41-2, (S)-4-(3-(4-chlorophenyl)-5,5-dimethyl-2-oxo-4-(3-(trifluoromethoxy)phenyl)imidazolidin-1-yl)benzonitrile]	
1 to 10		CCC[C@]1(C)[C@@H](c2cccc(OC(F)(F)F)c2)N(c2ccc(C#N)cc2)C(=O)N1c1ccc(C#N)cc1 [Example 52-3, 4,4′-((4R,5R)-4-methyl-2-oxo-4-propyl-5-(3-(trifluoromethoxy)phenyl)imidazolidine-1,3-diyl)dibenzonitrile]	
10 to 30		Cc1ccc(N2C(=O)N(c3ccc(C)cc3)C3(COC3)[C@H]2c2cccc(C#N)c2)cc1 [Example 32-1, (R)-3-(6-oxo-5,7-di-p-tolyl-2-oxa-5,7-diazaspiro[3.4]octan-8-yl)benzonitrile]	
< 1		COC[C@]1(C)[C@H](c2cccc(C#N)c2)N(c2ccc(Cl)cc2)C(=O)N1c1ccc(Cl)cc1 [Example 38-2, 3-((4S,5S)-1,3-bis(4-chlorophenyl)-5-(methoxymethyl)-5-methyl-2-oxoimidazolidin-4-yl)benzonitrile]	
10 to 30		O=C1N(c2ccc(Cl)cc2)C2CCOC[C@]2(c2cccc(OC(F)(F)F)c2)N1c1ccc(Cl)cc1 (stereo partly drawn) [Example 31-1, (3aR)-1,3-bis(4-chlorophenyl)-3a-(3-(trifluoromethoxy)phenyl)hexahydropyrano[3,4-d]imidazol-2(3H)-one]	
< 1		Cc1ccc(N2C(=O)N(c3ccc(C#N)cc3)C3(COC3)[C@@H]2c2cccc(OC(F)(F)F)c2)cc1 [Example 43-2, (S)-4-(6-oxo-7-(p-tolyl)-8-(3-(trifluoromethoxy)phenyl)-2-oxa-5,7-diazaspiro[3.4]octan-5-yl)benzonitrile]	

The next lines start with the compound.

SMILES	IC50 (human CGT [1]) [µM]	IC50 (human CGT [2]) [µM]	further results
CC1(C)[C@@H](c2cccc(C#N)c2)N(c2ccc(Cl)cc2)C(=O)N1c1ccc(Cl)cc1 [Example 10-1, (R)-3-(1,3-bis(4-chlorophenyl)-5,5-dimethyl-2-oxoimidazolidin-4-yl)benzonitrile]	10 to 30		
O=C1N(c2ccc(Cl)cc2)[C@@H]2CCC[C@]2(c2cccc(C(F)F)c2)N1c1ccc(Cl)cc1 [Example 16-2, (3aR,6aR)-1,3-bis(4-chlorophenyl)-3a-(3-(difluoromethyl)phenyl)hexahydrocyclopenta[d]imidazol-2(1H)-one]	10 to 30		
O=C1N(c2ccc(Cl)cc2)[C@H]2CCC[C@@]2(c2cccc(C(F)F)c2)N1c1ccc(Cl)cc1 [Example 16-1, (3aS,6aS)-1,3-bis(4-chlorophenyl)-3a-(3-(difluoromethyl)phenyl)hexahydrocyclopenta[d]imidazol-2(1H)-one]	10 to 30		
CC1(C)[C@@H](c2cccc(OC(F)F)c2)N(c2ccc(Cl)cc2)C(=O)N1c1ccc(Cl)cc1 [Example 9-1, (R)-1,3-bis(4-chlorophenyl)-5-(3-(difluoromethoxy)phenyl)-4,4-dimethylimidazolidin-2-one]	10 to 30		
CCC1(CC)[C@H](c2cccc(OC(F)(F)F)c2)N(c2ccc(Cl)cc2)C(=O)N1c1ccc(Cl)cc1 [Example 17-2, (S)-1,3-bis(4-chlorophenyl)-4,4-diethyl-5-(3-(trifluoromethoxy)phenyl)imidazolidin-2-one]	1 to 10		
CC1(C)[C@@H](c2cccc(Cl)c2)N(c2ccc(Cl)cc2)C(=O)N1c1ccc(Cl)cc1 [Example 8-1, (R)-5-(3-chlorophenyl)-1,3-bis(4-chlorophenyl)-4,4-dimethylimidazolidin-2-one]	10 to 30		
CCC[C@]1(C)[C@H](c2cccc(OC(F)(F)F)c2)N(c2ccc(Cl)cc2)C(=O)N1c1ccc(Cl)cc1 [Example 22-3, (4R,5S)-1,3-bis(4-chlorophenyl)-4-methyl-4-propyl-5-(3-(trifluoromethoxy)phenyl)imidazolidin-2-one]	< 1		
Cc1cccc(C2C(C)N(c3ccc(Cl)cc3)C(=O)N2c2ccc(Cl)cc2)c1 (stereo not drawn) [Example 3]	30 to 100		
CCC[C@H]1N(c2ccc(Cl)cc2)C(=O)N(c2ccc(Cl)cc2)C1(O)c1cccc(OC(F)(F)F)c1 (stereo partly drawn) [Compound 91-2, (5R)-1,3-bis(4-chlorophenyl)-4-hydroxy-5-propyl-4-(3-(trifluoromethoxy)phenyl)imidazolidin-2-one]		< 1	
C[C@@H]1N(c2ccc(Cl)cc2)C(=O)N(c2ccc(Cl)cc2)C1(O)c1cccc(C(F)(F)F)c1 (single isomer, unassigned) [Compound 77-1]		< 1	
O=C1N(c2ccc(Cl)cc2)C(c2cccs2)C(O)(c2ccccc2)N1c1ccc(Cl)cc1 (stereo not drawn) [Compound 109, 1,3-bis(4-chlorophenyl)-4-hydroxy-4-phenyl-5-(thiophen-2-yl)imidazolidin-2-one]		1 to 10	
O=C1N(c2ccc(Cl)cc2)C2(CCOC2)C(O)(c2cccc(OC(F)(F)F)c2)N1c1ccc(Cl)cc1 (stereo not drawn) [Compound 234, 1,3-bis(4-chlorophenyl)-4-hydroxy-4-(3-(trifluoromethoxy)phenyl)-7-oxa-1,3-diazaspiro[4.4]nonan-2-one]		< 1	
Cc1csc(C2(O)[C@H](C)N(c3ccc(Br)cc3)C(=O)N2c2ccc(Br)cc2)c1 (stereo partly drawn) [Compound 97-1, (5S)-1,3-bis(4-bromophenyl)-4-hydroxy-5-methyl-4-(4-methylthiophen-2-yl)imidazolidin-2-one]		1 to 10	
CCCC1N(c2ccc(Cl)cc2)C(=O)N(c2ccc(Cl)cc2)C1(O)c1cccc(C(F)(F)F)c1 (stereo not drawn) [Compound 87, 1,3-bis(4-chlorophenyl)-4-hydroxy-5-propyl-4-(3-(trifluoromethyl)phenyl)imidazolidin-2-one]		< 1	
CC1N(c2ccc(Cl)cc2)C(=O)N(c2ccc(Cl)cc2)C1(O)c1cccc(C(C)(C)O)c1 (stereo not drawn) [Compound 140, 1,3-bis(4-chlorophenyl)-4-hydroxy-4-(3-(2-hydroxypropan-2-yl)phenyl)-5-methylimidazolidin-2-one]		1 to 10	
O=C1N(c2ccc(Cl)cc2)C(=O)C(O)(c2ccc(Cl)cc2)N1c1ccc(Cl)cc1 (stereo not drawn) [Compound 154, 1,3,5-tris(4-chlorophenyl)-5-hydroxyimidazolidine-2,4-dione]		50 to 100	
C[C@@H]1N(c2ccc(Cl)cc2)C(=O)N(c2ccc(Cl)cc2)C1(O)c1cccc(C(C)(C)O)c1 (stereo partly drawn) [Compound 140-1, (5S)-1,3-bis(4-chlorophenyl)-4-hydroxy-4-(3-(2-hydroxypropan-2-yl)phenyl)-5-methylimidazolidin-2-one]		> 50	
COC[C@@]1(C)N(c2ccc(Cl)cc2)C(=O)N(c2ccc(Cl)cc2)C1(O)c1cccc(C#N)c1 (single isomer, unassigned) [Compound 297-1]			IC50 (human CGT [2]; C6-NBD-dihydro-galactosylceramide readout): < 1 µM
